Consider 30 molecules from US20240246918A1, “COMPOUNDS AND COMPOSITIONS AS EIF4E INHIBITORS AND THE USES THEREOF” (Ribometrix, Inc., priority 2022, published 2024).

The target in one experiment is T1, human eIF4E protein (Homo sapiens, UniProt P06730).
T1 construct: purchased Novus NBP-45314
Put plainly: Biochemical competitive binding assay (TR-FRET competition, EDA-m7GDP-ATTO-647N probe). Particulars: read-out: hEIF4E TR-FRET IC50. Here is the method:
The potencies of compounds binding to human eIF4E protein were measured using a 384-well time-resolved fluorescence resonance energy transfer (TR-FRET) competition assay. The assay was performed in assay buffer containing 50 mM HTEPES pH 7.5, 100 mM KCl, 0.02% Tween-20, and 0.1 mg/mL bovine serum albumin (BSA). The reaction volume was 10 μL and each reaction contained 4 nM recombinant 6×HIS-tagged human EIF4E protein (Novus, NBP-45314), 5 nM EDA-m7GDP-ATTO-647N (Jena Bioscience, NU-827-647N), 2.5 nM Europium conjugated Anti-6×HIS antibody (PerkinElmer, AD0402) and varying concentrations of compound. The final DMSO concentration was […].
Compounds were prepared using 11-point, 4-fold serial dilutions in DMSO and 100 nL of diluted compounds were transferred to 384-well assay-ready plates. Recombinant human EIF4E protein at 2× final concentration (8 nM) was pre-incubated with Eu-anti-6×HIS antibody at 2× final concentration (5 nM) for 5 minutes, then 5 μL of the protein solution was added to assay-ready plates. The protein/compound mix was incubated for 15 minutes, after which 5 μL of a solution containing EDA-m7GDP-ATTO-647N probe at 2× final concentration (10 nM) was added. After a subsequent 15-minute incubation, time-resolved fluorescence of assay plates was measured using a Clariostar Plus microplate reader (BMG Labtech) and TR-FRET values were calculated by taking a ratio of the 665 to 620 wavelength signals. After normalization to the average of DMSO control and maximum inhibition control wells, concentration-response data were plotted and standard 4-parameter curve fitting (PEI Signals) was utilized to determine IC50 values.

The test system of experiment [1] is COLO 205 colorectal tumor cells. Put plainly: Tumor cell viability inhibition assay (CellTiter-Glo 2.0, 72 hours). The experiment is classed as cell-based. Particulars: COLO 205 cell viability. Here is the method:
The effect of compound treatment on COLO 205 tumor cell viability was assessed using cellular ATP quantification methods (Promega CellTiter-Glo® 2.0, G9241), as follows. Test compounds were prepared using 11-point, 4-fold serial dilutions in DMSO and 100 nL of diluted compounds were transferred to 384-well assay-ready plates. COLO 205 (ATCC, CCL-222) colorectal tumor cells were seeded to assay-ready plates in RPMI-1640 medium supplemented with 10% FBS at 1500 cells in a volume of 33.5 microliters per well. After 72 hours of compound treatment, cellular ATP was assessed by CellTiter-Glo® 2.0 Cell Viability Assay method, according to the manufacturer's instructions. Luminescence was measured using a Clariostar Plus microplate reader (BMG Labtech) or equivalent. After normalization to the average of DMSO control and maximum inhibition control wells, concentration-response data were plotted and standard 4-parameter curve fitting (PEI Signals) was utilized to determine IC50

Molecules are shown by their SMILES.

T1 sequence (P06730 whole entry): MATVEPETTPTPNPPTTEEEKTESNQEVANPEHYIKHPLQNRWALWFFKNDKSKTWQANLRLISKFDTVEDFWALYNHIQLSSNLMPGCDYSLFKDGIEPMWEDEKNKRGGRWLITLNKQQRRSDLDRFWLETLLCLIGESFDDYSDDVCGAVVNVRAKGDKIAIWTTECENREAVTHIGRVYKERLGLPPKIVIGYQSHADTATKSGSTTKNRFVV

Usually IC50 stands for the midpoint of a concentration-inhibition curve. For `Cc1cc(-c2cc(Cl)ccc2OCCn2c(C)nc3c(c2=O)CC(N2CCC(OC(F)(F)F)CC2)CC3)c2scc(C(=O)NS(C)(=O)=O)c2n1` (single isomer, unassigned) [Compound 104], the IC50 was less than 0.1 µM at human eIF4E protein and less than 5 µM in experiment [1] (Homo sapiens, COLO 205, 72 h).
With `Cc1cc(-c2cc(Cl)ccc2OCCn2c(C)nc3c(c2=O)C[C@@H](N2CC[C@H](C(F)F)C2)CC3)c2scc(C(=O)O)c2n1` (single isomer, unassigned) [Compound 113], the IC50 is less than 0.1 µM at human eIF4E protein and less than 5 µM in experiment [1] (Homo sapiens, COLO 205, 72 h).
In the case of `Cc1cc(-c2cc(Cl)ccc2OCCn2c(C)nc3c(c2=O)C[C@@H](N2[C@@H]4CC[C@H]2C[C@H](OC(F)(F)F)C4)CC3)c2scc(C(=O)O)c2n1` (single isomer, unassigned) [Compound 397], the IC50 on human eIF4E protein lay in the range of 0.1 to 0.5 µM; in experiment [1] (Homo sapiens, COLO 205, 72 h) it was 5 to 20 µM.
For `Cc1cc(-c2cc(Cl)ccc2OCCn2c(C)nc3c(c2=O)C[C@H](N2CCCC[C@@H]2c2cccc(C(F)(F)F)c2)CC3)c2scc(C(=O)O)c2n1` (single isomer, unassigned) [Compound 590] the same measures were 0.5 to 5 µM and greater than 20 µM.
For `Cc1cc(-c2cc(Cl)ccc2OCCn2c(C)nc3c(c2=O)C[C@@H](N2CCCC[C@@H]2c2nccs2)CC3)c2scc(C(=O)O)c2n1` (single isomer, unassigned) [Compound 549], in that order: 0.1 to 0.5 µM and greater than 20 µM.
As for `CO[C@@H](C1CCN([C@H]2CCc3nc(C)n(CCOc4ccc(Cl)cc4-c4cc(C)nc5c(C(=O)O)csc45)c(=O)c3C2)CC1)C(F)(F)F` (single isomer, unassigned) [Compound 562], the 50% inhibitory concentration (IC50) was less than 0.1 µM at human eIF4E protein and less than 5 µM in experiment [1] (Homo sapiens, COLO 205, 72 h).
Take `Cc1nc2c(c(=O)n1CC#Cc1ccc(Cl)cc1-c1ccnc3c(C(=O)O)csc13)CC(N1CCC(OC(F)(F)F)CC1)CC2` (single isomer, unassigned) [Compound 535]: the IC50 at human eIF4E protein is less than 0.1 µM; in experiment [1] it was less than 5 µM.
For the molecule `Cc1cc(-c2cc(Cl)ccc2OCCn2c(C)nc3c(c2=O)C[C@H](N2CCC(c4nccs4)CC2)CC3)c2scc(C(=O)O)c2n1` (single isomer, unassigned) [Compound 475], the IC50 was less than 0.1 µM on human eIF4E protein and less than 5 µM in experiment [1] (Homo sapiens, COLO 205, 72 h).
Turning to `Cc1cc(-c2cc(Cl)ccc2OCCn2c(C)nc3c(c2=O)CC(N2CCC(OC(F)(F)F)CC2)CC3)c2scc(C(=O)NS(=O)(=O)C(F)F)c2n1` (single isomer, unassigned) [Compound 416], the IC50 at human eIF4E protein is less than 0.1 µM; in experiment [1] (Homo sapiens, COLO 205, 72 h) it was 5 to 20 µM.
Consider `Cc1cc(-c2cc(Cl)ccc2OCCn2c(C)nc3c(c2=O)C[C@H](N2CCC(Oc4ccc(F)cc4F)CC2)CC3)c2scc(C(=O)O)c2n1` (single isomer, unassigned) [Compound 595], for which the IC50 was less than 0.1 µM on human eIF4E protein and less than 5 µM in experiment [1] (Homo sapiens, COLO 205, 72 h).
Regarding `Cc1cc(-c2cc(Cl)ccc2OCCn2c(C)nc3c(c2=O)C[C@@H](N2CCC[C@H](c4ccn(C)n4)C2)CC3)c2scc(C(=O)O)c2n1` (single isomer, unassigned) [Compound 448], the IC50 was less than 0.1 µM on human eIF4E protein and less than 5 µM in experiment [1] (Homo sapiens, COLO 205, 72 h).
For `Cc1cc(-c2cc(Cl)ccc2OCCn2c(C)nc3c(c2=O)CC(N2CCC4(CC2)CN(CC(F)(F)F)CC4(F)F)CC3)c2scc(C(=O)O)c2n1` (single isomer, unassigned) [Compound 529] the same measures were less than 0.1 µM and less than 5 µM.
As to `Cc1cc(-c2cc(Cl)ccc2OCCn2c(C)nc3c(c2=O)C[C@@H](N2CCC(COC(F)(F)F)CC2)CC3)c2scc(C(=O)O)c2n1` (single isomer, unassigned) [Compound 407], the 50% inhibitory concentration (IC50) at human eIF4E protein was less than 0.1 µM; in experiment [1] (Homo sapiens, COLO 205, 72 h) it was less than 5 µM.
In the case of `Cc1cc(-c2cc(Cl)ccc2OCCn2c(C)nc3c(c2=O)C[C@H](N2CCC(O)CC2)CC3)c2scc(C(=O)O)c2n1` (single isomer, unassigned) [Compound 434], the IC50 at human eIF4E protein is less than 0.1 µM; in experiment [1] (Homo sapiens, COLO 205, 72 h), less than 5 µM.
For `Cc1cc(-c2cc(Cl)ccc2OCCn2c(C)nc3c(c2=O)CC(N2CC4(CCCN(CC(F)(F)F)C4)C2)CC3)c2scc(C(=O)O)c2n1` (single isomer, unassigned) [Compound 507] the same measures were less than 0.1 µM and less than 5 µM.
Regarding `Cc1nc2c(c(=O)n1CC#Cc1ccc(Cl)cc1-c1ccnc3c(C(=O)NS(C)(=O)=O)csc13)CC(N1CCC(OC(F)(F)F)CC1)CC2` (single isomer, unassigned) [Compound 592], the half-inhibitory concentration (IC50) at human eIF4E protein is less than 0.1 µM; in experiment [1] (Homo sapiens, COLO 205, 72 h), less than 5 µM.
Regarding `Cc1cc(-c2cc(Cl)ccc2OCCn2c(C)nc3c(c2=O)C[C@H](N2CC[C@@H](OC(F)(F)F)C(C)(C)C2)CC3)c2scc(C(=O)O)c2n1` (single isomer, unassigned) [Compound 395], the IC50 on human eIF4E protein was less than 0.1 µM; in experiment [1] (Homo sapiens, COLO 205, 72 h), 5 to 20 µM.
With `Cc1cc(-c2cc(Cl)ccc2OCCn2c(C)nc3c(c2=O)C[C@@H](N2CCCC[C@@H]2C)CC3)c2scc(C(=O)O)c2n1` (single isomer, unassigned) [Compound 409], the IC50 was less than 0.1 µM at human eIF4E protein and greater than 20 µM in experiment [1] (Homo sapiens, COLO 205, 72 h).
For `Cc1cc(-c2cc(Cl)ccc2OCCn2c(C)nc3c(c2=O)C[C@H](N2CCC[C@@H](C(F)F)C2)CC32CC2)c2scc(C(=O)O)c2n1` (single isomer, unassigned) [Compound 616] the same measures were less than 0.1 µM and less than 5 µM.
For `Cc1nc2c(c(=O)n1CCOc1ccc(Cl)cc1-c1ccnc(CC(=O)O)c1)CC(N(C)CC1CC(F)(F)C1)CC2` (stereo not drawn) [Compound 118] the same measures were 0.5 to 5 µM and greater than 20 µM.
As for `Cc1cc(-c2cc(Cl)ccc2OCCn2c(C)nc3c(c2=O)C[C@@H](N(C)[C@H]2CC[C@](C)(O)CC2)CC3)c2scc(C(=O)O)c2n1` (single isomer, unassigned) [Compound 226], the IC50 at human eIF4E protein is less than 0.1 µM; in experiment [1] (Homo sapiens, COLO 205, 72 h), greater than 20 µM.
On to `Cc1nc2c(c(=O)n1CC#Cc1ccc(Cl)cc1-c1ccnc3c(C(=O)O)csc13)CC(N1CCC(OC(F)(F)F)CC1)CC2` (single isomer, unassigned) [Compound 534], for which the IC50 on human eIF4E protein is less than 0.1 µM; in experiment [1] (Homo sapiens, COLO 205, 72 h), less than 5 µM.
For `Cc1cc(-c2cc(Cl)ccc2OCCn2c(C)nc3c(c2=O)C[C@H](N2CCC(COC(F)(F)F)CC2)CC3)c2scc(C(=O)O)c2n1` (single isomer, unassigned) [Compound 452], the half-maximal inhibitory concentration (IC50) is less than 0.1 µM on human eIF4E protein and less than 5 µM in experiment [1] (Homo sapiens, COLO 205, 72 h).
For the molecule `Cc1cc(-c2cc(Cl)ccc2OCCn2c(C)nc3c(c2=O)C[C@H](N2CCC(OC(F)(F)F)CC2)[C@@H]2C[C@H]32)c2scc(C(=O)O)c2n1` (single isomer, unassigned) [Compound 597], the IC50 at human eIF4E protein was less than 0.1 µM; in experiment [1] (Homo sapiens, COLO 205, 72 h), less than 5 µM.
For `Cc1cc(-c2cc(Cl)ccc2OCCn2c(C)nc3c(c2=O)C[C@@H](N2C[C@@H]4CC(F)(F)C[C@@H]4C2)CC32CC2)c2scc(C(=O)O)c2n1` (single isomer, unassigned) [Compound 619], in that order: less than 0.1 µM and less than 5 µM.
`CCS(=O)(=O)C1CCN(C2CCc3nc(C)n(CCOc4ccc(Cl)cc4-c4cc(C)nc5c(C(=O)O)csc45)c(=O)c3C2)CC1` (stereo not drawn) [Compound 115]: the IC50 on human eIF4E protein is less than 0.1 µM; in experiment [1] (Homo sapiens, COLO 205, 72 h), 5 to 20 µM.
For `COC1(C(F)(F)F)CC2CCC(C1)N2[C@H]1CCc2nc(C)n(CCOc3ccc(Cl)cc3-c3cc(C)nc4c(C(=O)O)csc34)c(=O)c2C1` (single isomer, unassigned) [Compound 503], the half-maximal inhibitory concentration (IC50) at human eIF4E protein lay in the range of 0.1 to 0.5 µM; in experiment [1] (Homo sapiens, COLO 205, 72 h) it was 5 to 20 µM.
For `Cc1cc(-c2cc(Cl)ccc2OCCn2c(C)nc3c(c2=O)CC(N2CCC4(CC2)CC4(F)F)CC32CC2)c2scc(C(=O)NS(C)(=O)=O)c2n1` (single isomer, unassigned) [Compound 632], in that order: less than 0.1 µM and less than 5 µM.
For `COC1(C)CCN(C2CCc3nc(C)n(CCOc4ccc(Cl)cc4-c4cc(C)nc5c(C(=O)O)csc45)c(=O)c3C2)CC1` (stereo not drawn) [Compound 134] the same measures were less than 0.1 µM and less than 5 µM.
On to `Cc1cc(-c2cc(Cl)ccc2OCCn2c(C)nc3c(c2=O)CC(N2CCC(CC(F)(F)F)CC2)CC3(C)C)c2scc(C(=O)O)c2n1` (single isomer, unassigned) [Compound 500], for which the concentration for half-maximal inhibition (IC50) on human eIF4E protein was less than 0.1 µM; in experiment [1] it was less than 5 µM.
